From US20090233999A1, “COMPOSITIONS AND THERAPEUTIC METHODS INVOLVING ISOFLAVONES AND ANALOGUES THEREOF” (NOVOGEN RESEARCH PTY LTD, priority 1999, published 2009)

What was measured:
[1] = tested on: TNFα; assay: LPS-induced TNFα synthesis in human monocytes; type: cell-based; settings: 100 μM
Procedure: Test compounds (in DMSO) at 100, 10, and 1 μmol/ were incubated with monocytes at 37° C. for 30 min after which LPS was added (200 ng/ml) and cells were incubated in triplicate for 18 h at 37° C. in 5% CO2. […], supernatants were removed and TNFα measured by ELISA previously described.

[2] = tested on: VCAM-1; assay: TNFα-induced VCAM expression on HAECs (ELISA); type: cell-based, human; settings: 10 μM
Procedure: Inhibition of TNFα-stimulated endothelial cell activation by compounds was assessed by measuring surface expression of cell adhesion molecules with an ELISA. Human arterial endothelial cells (HAECs) in growth medium (Cell Applications Inc.) were seeded into 96-well plates at a density of 10,000 cells per well. Plates were incubated overnight at 37° C. in a humidified incubator to allow for cells to become confluent. On the morning of the experiment, TNFα (10 μl, 2 ng/ml) was added to each well, which contained 100 μl of medium. Compounds were diluted in DMSO-containing medium (2.5% DMSO) to give a compound concentration of 100 and 300 μM. Compounds were added to wells so that final concentrations were 10 and 30 μM. DMSO-containing medium alone was added to zero concentration control wells. All samples were measured in quadruplicate (4 wells per treatment).
After incubation with compound for 4 hours, medium was removed and cells were probed with either non-specific IgG or specific mouse antibodies against VCAM, ICAM or E-selectin (BD Biosciences—0.1 μg in 100 μL buffered saline with 10% heat-inactivated human serum). Adhesion molecule expression was detected by addition of sheep anti-mouse antibody/horseradish peroxidase conjugate. Plates were allowed to stand for 30 minutes—monolayers were then washed, and sheep anti-mouse antibody/horseradish peroxidase conjugate (1:500 in 100 μL HBSS with 10% heat-inactivated human serum and 0.05% Tween 20) was added and left for 30 minutes. After further washing, 150 μL ABTS substrate (Kirkegaard and Perry Laboratories) was added to each well and allowed to develop for 15 minutes. Optical density was measured at 405 nm with an ELISA reader (Titertek Multiscan, Flow Laboratories).

[3] = tested on: TNFα; assay: TNFα production by murine splenocytes; type: cell-based, mouse; settings: 10 μM; LPS
Procedure: Male Skh-1 (hairless) mice, approximately six weeks old were killed by cervical dislocation. Single cell suspensions were made from the spleen and erythrocytes were lysed in buffer (0.14M NH4Cl, 17 mM Tris, pH 7.2). The remaining splenocytes were cultured in RPMI-1640 (Gibco) supplemented with 10% (v:v) FBS, 2 mM L-glutamine, pen/strep and 50 μM 2-mercaptoethanol. Splenocytes were added to quadruplicate wells containing either the T cell mitogen concanavalin A (Con A, Sigma-Aldrich—0. 4 μg/well), the B-cell mitogen LPS (Sigma-Aldrich—1 μg/well) or no mitogen, as well as test compound at a concentration of 10 μM in DMSO. Samples were analysed after a 3 day incubation at 37° C. in 5% CO2 in air. Cell viability was assessed by adding MTT to each well, incubating for a further 4 hrs and then developing colour with 0.04N HCl in isopropanol. Supernatant samples were frozen at −80° C. and IL-6, IFN-γ and TNFα were detected in triplicate using ELISA kits (BD Biosciences).

[4] = tested on: Skh:hr-1 albino mice (UV-induced skin thickening); assay: Murine model of UV irradiation-induced skin oedema; type: in vivo, mouse; settings: for Change in skin thickness (mean ± SD, ×0.01 mm): 0.2 ml of 20 μM topical ×3
Description: Groups of 4-5 female Skh:hr-1 albino mice were irradiated with 1×3 MED (minimal erythemal dose) of solar simulated UV radiation, provided by a planar bank of 6 UVA tube (Hitachi 40W F40T 10/BL, black light) and one UVB tube (Philips TL 40W/12RS) with radiation filtered through a sheet of 0.125 mm cellulose acetate (Eastman Chemical Products, Kingport, Term, USA) to give 2.96×10-4 W/cm2 UVA and 1.59×10-5 W/cm2 UVB. The distance of the UV lamp from the irradiance table surface was approximately 20 cm and temperature was controlled with an electric fan. During irradiation, the cages were rotated below the lights to reduce the variation in radiation intensity in different positions.
Either test compound (0.2 ml of a 20 μM solution) or vehicle (propylene glycol/ethanol (EtOH)/water 1:2:1) was applied to the irradiated dorsal skin at 30 min, 2 h and 4 h post-irradiation. Dorsal skin fold measurements were made with a spring micrometer prior to and at 24 hr and 48 h post-UV exposure. The difference in skin thickness pre- and post-exposure to UVR was calculated for each mouse, and the differences examined between test compound and vehicle control were analysed using an unpaired two-tailed t test.
The data are presented in tables, as well as graphically as the mean percentage inhibition of skin fold thickness, calculated as [1−[(mean % change skin thickness of test group/mean % change skin thickness of control group)×100]].

[5] = tested on: A7r5; assay: Proliferation of rat aortic smooth muscle cell line A7r5; type: cell-based; settings: A7R5, 72 h, three days, read-out: VSMC proliferation - IC50 (μM), A7r5
Procedure: Human umbilical vein smooth muscle cells (HUVSMC), tissue explants from a neonate (HRI— passage 2), were seeded into 96 well plates at 1×10^3 cells per well, and allowed to attach for 24 hours. They were then washed twice and incubated in medium without FBS for 24-48 hours to serum-starve them. Test compounds were prepared in medium without FBS and added to the plates and incubated for one hour. Medium with FBS was added to give a final concentration of 10% and the plates incubated for 5 days until the controls were just confluent. Final analogue concentration was therefore either a series from 150 μM to 1.2 μM, or single concentrations of 10 μM. The difference in absorbance between treated cells and untreated cells was calculated using the formula, test/control*100, to obtain the percentage change caused by the test compound. As well, an IC50 for each compound was calculated.
The effect of test compounds a rat aortic smooth muscle cell line (A7r5) and another cell line from the media of rat aorta (A10) was examined. The methodology was the same as for HUVSMC, except that the cells were treated with compound for three days.

[6] = 24 hrs post-irradiation, vehicle 78 ± 23
[7] = 48 hrs post-irradiation, vehicle 147 ± 37

Row | SMILES | synthesis of TNFα [1] | TNFα-induced VCAM expression [2] | TNFα synthesis by B cells [3] | Change in skin thickness (mean ± SD, ×0.01 mm) [4, 6] | UV-induced inflammation at 48 hrs ([4]; 48 hrs) | Change in skin thickness (mean ± SD, ×0.01 mm) [4, 7] | IC50 [5] | UV-induced inflammation at 24 hrs ([4]; 24 hrs)
1 | COc1ccc(C2=Cc3ccc(O)c(C)c3OC2)cc1OC [Cpd. 19, 7-Hydroxy-3′,4′-dimethoxy-8-methylisoflav-3-ene] | inhibited | significantly inhibited | inhibited | 63 ± 8.1 ×0.01 mm | significantly inhibited | 96 ± 5 ×0.01 mm |  | 
2 | COc1ccc(C2=Cc3ccc(O)cc3OC2)cc1OC [Cpd. 18, 7-Hydroxy-3′,4′-dimethoxyisoflav-3-ene] | inhibited | significantly inhibited |  |  |  |  | 74 µM | 
3 | Oc1ccc(C2=Cc3ccc(O)c(Br)c3OC2)cc1 [Cpd. 20, 4′,7-Dihydroxy-8-bromoisoflav-3-ene] |  | significantly inhibited | induced | 38 ± 4 ×0.01 mm |  | 123 ± 39 ×0.01 mm | 33 µM | significantly inhibited
4 | Oc1ccc2c(c1)OCC(c1ccc(Br)cc1)=C2 [Cpd. 21, 4′-Bromo-7-hydroxyisoflav-3-ene] |  |  | induced |  |  |  |  | 
5 | COc1cccc(C2=Cc3ccc(O)cc3OC2)c1 [Cpd. 16, 7-Hydroxy-3′-methoxyisoflav-3-ene] |  | intermediate activity | induced | 61 ± 13 ×0.01 mm |  | 111 ± 15 ×0.01 mm | 48 µM | 
6 | Cc1c(O)ccc2c1OCC(c1cccc(O)c1)=C2 [Cpd. 14, 3′,7-Dihydroxy-8-methylisoflav-3-ene] | inhibited |  | induced | 77 ± 5.6 ×0.01 mm |  | 137 ± 16 ×0.01 mm | 33 µM | 
